The record followed here is the NIST ThermoML archive (doi:10.1016/j.jct.2005.07.017).

The structures appear in SMILES notation. ± gives the expanded uncertainty stated by the source.

Broadly, the mass density is mass per unit of volume.

The conditions of the data set: 298.15 K; 101.33 kPa; Liquid.
Regarding `COC(C)(C)C` [2-methoxy-2-methylpropane], the mass density amounted to 735.99 ± 0.86 kg/m3. Under `CC1CCCO1` (centres undefined) [2-methyltetrahydrofuran] stands 848.1 ± 0.73 kg/m3; under `CCCCCCCC` [octane], 698.73 ± 0.86 kg/m3. The figure for `C1CCOC1` [tetrahydrofuran] is 882.09 ± 0.64 kg/m3.
